How the values were obtained:
[1] = system: human glioma A 172 cells; assay: Cellular Proliferation Assay (MTT); assay type: cell-based
Protocol: (§1) a—Cell Culture: Human malignant gliomas U 87 and A 172 cells were obtained from the American Type Culture Collection (ATCC), and grown as monolayers on the at 37° C., in Dulbecco's Modified Eagle Medium supplemented with 0.2 mM nonessential amino acids, 10% (v/v) fetal calf serum, penicillin (100 UI/mL), streptomycin ([…]) and amphotericin B (Fungizone, […]). For subcultures, confluent monolayers were gently washed with Dulbecco's phosphate—buffered saline (PBS, pH 7.2), and after a short exposure to trypsin, the cells were transferred to a new bottle containing complete growth media.
(§2) Cellular Proliferation Assay: the target cells (human glioma U 87 and A 172) were cultivated in plates of 96 wells at a concentration of 5.0×10^5 cells by well. After the cellular adherence the cells were placed in multiple POH dilutions, in triplicates, having as positive control cells growing with detergent Tween 20. The negative control were cells growing without any additive. Concentrations varying from 30%, 3%, 0.03%, 0.003%, 0.0003% (v/v) were applied and after 24 hours of incubation 1.0 mg of hydrogen acceptor 3 (4,5 dimethylthiazol-2yi)-2-5 diphenyltetrazolium bromide (MTT) solution was added in each well, and the culture was incubated for additional 3 hours. […] An ELISA reader with 490 nm filter was used to read the results.

[2] = system: human glioma U 87 cells; assay: Cellular Proliferation Assay (MTT); assay type: cell-based
Protocol: as §1, §2

[3] = system: glial cell C6; assay: Effect on glial cell C6 growth; assay type: cell-based, rats; conditions: various concentrations (FIG. 2)
[4] = system: A 172 cells; assay: Studies of cell morphology; assay type: cell-based, human; conditions: POH 0,3%
Protocol: (§3) Studies of cell morphology:_A 172 and U 87 cells were cultivated in plates of 6 wells. After 24 hours, perillyl alcohol was added to a final concentration of 0.3% (v/v). Monolayers of cells treated with POH were photographed by an optic microscope inverted NIKON TMS, to register morphological changes induced by the treatment. All studies of cell morphology were performed at least three times to ensure accurate interpretation.

[5] = system: U 87 cells; assay: Studies of cell morphology; assay type: cell-based, human; conditions: POH 0,3%
Protocol: as §3

[6] = system: A 172 glial cells; assay: Chorioallantoic Membrane (CAM) Assay, anti-metastatic activity; assay type: in vivo, human; conditions: A 172 cells exposed to POH 0,3% to 0,03% for 2 hours prior to inoculation in chick embryo chorioallantoic membrane
Protocol: (§4) After determination of cell concentration applying a Neubauer Chamber, 2×10^6 cells were incubated for 2 hours at 37° C., in D-MEM medium containing concentrations varying from […] or 3% of perillyl alcohol (Sigma), prior to inoculation on CAM.
(§5) b—Chorioallantoic Membrane (CAM) Assay: seven days old fertilized specific pathogen free chick eggs were used in this study. By transillumination in a dark chamber, the egg air camera was marked on the eggshell. The following procedures were done under aseptic conditions, in the laminar chamber. An opening was made in the upper part and another in the lateral part of the eggshell, and the air camera was mechanically displaced to the upper side by applying negative pressure at the lateral opening. Both openings were sealed. In the upper part of the egg, a small window was made. On the upper CAM, the cells were inoculated, with a sterile pipette. Eggs 1, 2 and 3 received 2×10^6 cells previously treated with POH (0.03, 0.3 and 3%, respectively) diluted D-MEM medium. Egg 4 received 2×10^6 untreated cells in D-MEM medium. Egg 5 was used as negative control (no cells inoculated). The windows were sealed and the eggs were kept at 37° C. and 60% humidity, in the horizontal position, without agitation, for seven days
(§6) Opening of the eggs. […]

[7] = system: U 87 glial cells; assay: as above; assay type: in vivo, human; conditions: U 87 cells exposed to POH 0,3% to 0,03% for 2 hours prior to inoculation in chick embryo chorioallantoic membrane
Protocol: as §4, §5, §6

[8] = system: glial cell lines; assay: Inhibition of protein expression in glial cell lines; assay type: cell-based; conditions: POH treatment in glial cell lines (FIG. 10: A 172)
[9] = system: rats; conditions: rat, in vivo
[10] = system: rats; conditions: perillyl alcohol diet; cited from earlier work

SMILES: C=C(C)[C@@H]1CC=C(CO)CC1 [perillyl alcohol, p-metha, 1,7-diene-6-ol or 4-isopropenyl-cyclohexanecarbinol]
- proliferation of glioma cell lines ([1]; POH 30%, 3%, 0,3% and 0,03%, preliminary in vitro studies): inhibits the proliferation
- cell growth ([1]; various concentrations (FIG. 4)): significantly inhibited cell growth in a dose dependent manner
- proliferation of glioma cell lines ([2]; U 87, POH 30%, 3%, 0,3% and 0,03%, preliminary in vitro studies): inhibits the proliferation
- cell growth ([2]; U87, various concentrations (FIG. 3)): significantly inhibited cell growth in a dose dependent manner
- cell growth [3]: significantly inhibited cell growth in a dose dependent manner
- cell morphology [4]: changes in morphology, indicative of cellular differentiation
- cell morphology [5]: changes in morphology, indicative of cellular differentiation
- anti-metastatic activity [6]: anti metastatic activity
- anti-metastatic activity [7]: anti metastatic activity
- protein expression [8]: inhibition protein expression
- toxicity in tissues of lung, liver, and brain [9]: no toxicity
- maximum dose tolerated [10]: 2,5%
